# Assays:
# Experiment in all cases: NCI 60 cell panel SRB screen
# SK-MEL-28 = format: cell-based; conditions: Homo sapiens
# A549/ATCC = format: cell-based; conditions: Homo sapiens
# RXF 393 = format: cell-based; conditions: Homo sapiens
# SNB-75 = format: cell-based; conditions: Homo sapiens
# HCC-2998 = format: cell-based; conditions: Homo sapiens
# MALME-3M = format: cell-based; conditions: Homo sapiens
# RPMI-8226 = format: cell-based; conditions: Homo sapiens
# KM12 = format: cell-based; conditions: Homo sapiens
# HOP-92 = format: cell-based; conditions: Homo sapiens
# SR = format: cell-based; conditions: Homo sapiens
# OVCAR-5 = format: cell-based; conditions: Homo sapiens
# SW-620 = format: cell-based; conditions: Homo sapiens
# NCI/ADR-RES = format: cell-based; conditions: Homo sapiens
# SK-MEL-5 = format: cell-based; conditions: Homo sapiens
# TK-10 = format: cell-based, human; conditions: Homo sapiens; TK-10, single dose 10 μM; read-out: percent cell growth promotion
# M14 = format: cell-based; conditions: Homo sapiens
# HCT-116 = format: cell-based; conditions: Homo sapiens
# CCRF-CEM = format: cell-based, human
# NCI-H226 = format: cell-based; conditions: Homo sapiens
# U251 = format: cell-based; conditions: Homo sapiens, U-251
# ACHN = format: cell-based; conditions: Homo sapiens
# OVCAR-8 = format: cell-based; conditions: Homo sapiens
# SK-OV-3 = format: cell-based; conditions: Homo sapiens
# SNB-19 = format: cell-based; conditions: Homo sapiens
# SN12C = format: cell-based; conditions: Homo sapiens
# NCI-H460 = format: cell-based; conditions: Homo sapiens
# NCI-H23 = format: cell-based; conditions: Homo sapiens
# [1] = single dose 10 μM, read-out: percent cell growth promotion
# [2] = 5 log dose, 48 h, read-out: LC50 (the source's name)
smiles,measurement,setting,value
"Clc1ccc(Nc2nnc(COc3ccccc3)c3ccccc23)cc1 [Compound 17a, N-(4-Chlorophenyl)-4-(phenoxymethyl)phthalazin-1-amine]",GI50,SK-MEL-28; SK-MEL-28,2.84 µM
same,IC (TGI),"SK-MEL-28; SK-MEL-28, read-out: TGI",7.23 µM
same,activity at 10 µM,"SK-MEL-28; SK-MEL-28, read-out: percent cell growth promotion",4.73%
same,CC50,"SK-MEL-28; SK-MEL-28, 5 log dose, 48 h, read-out: LC50 (the source's name)",18.4 µM
same,GI50,A549/ATCC; 5 log dose,2.87 µM
same,IC (TGI),A549/ATCC; 5 log dose,12.3 µM
same,LC50 (concentration killing 50% of cells),"A549/ATCC; 5 log dose, 48 h",> 25 µM
same,activity at 10 µM,A549/ATCC; [1],4.64%
same,GI50,"RXF 393; RXF 393, 5 log dose",1.01 µM
same,IC (TGI),"RXF 393; RXF 393, 5 log dose",4.97 µM
same,CC50,"RXF 393; RXF 393, 5 log dose, 48 h, read-out: LC50 (the source's name)",14.4 µM
same,activity at 10 µM,"RXF 393; RXF 393, single dose 10 μM, read-out: percent cell growth promotion",-5.93%
same,GI50,"SNB-75; SNB-75, 5 log dose",0.49 µM
same,IC (TGI),"SNB-75; SNB-75, 5 log dose",6.65 µM
same,LC50 (concentration killing 50% of cells),"SNB-75; SNB-75, 5 log dose, 48 h",> 25 µM
same,activity at 10 µM,"SNB-75; SNB-75, single dose 10 μM, read-out: percent cell growth promotion",13.1%
same,GI50,"HCC-2998; HCC-2998, 5 log dose",3.81 µM
same,IC (TGI),"HCC-2998; HCC-2998, 5 log dose",8.36 µM
same,LC50 (50% lethal concentration),"HCC-2998; HCC-2998, 5 log dose, 48 h",18.3 µM
same,activity at 10 µM,"HCC-2998; HCC-2998, single dose 10 μM, read-out: percent cell growth promotion",8.55%
same,GI50,MALME-3M; Malme-3M,1.38 µM
same,IC (TGI),"MALME-3M; Malme-3M, read-out: TGI",7.3 µM
same,activity at 10 µM,"MALME-3M; Malme-3M, read-out: percent cell growth promotion",-13.5%
same,CC50,"MALME-3M; MALME-3M, 5 log dose, 48 h, read-out: LC50 (the source's name)",25 µM
same,GI50,"RPMI-8226; RPMI-8226, 5 log dose",1.37 µM
same,IC (TGI),"RPMI-8226; RPMI-8226, 5 log dose",6.96 µM
same,CC50,"RPMI-8226; RPMI-8226, 5 log dose, 48 h, read-out: LC50 (the source's name)",> 25 µM
same,activity at 10 µM,"RPMI-8226; RPMI-8226, single dose 10 μM, read-out: percent cell growth promotion",-25.3%
same,GI50,"KM12; KM12, 5 log dose",2.65 µM
same,IC (TGI),"KM12; KM12, 5 log dose",7.72 µM
same,CC50,"KM12; KM12, 5 log dose, 48 h, read-out: LC50 (the source's name)",22.4 µM
same,activity at 10 µM,"KM12; KM12, single dose 10 μM, read-out: percent cell growth promotion",0.18%
same,GI50,"HOP-92; HOP-92, 5 log dose",0.33 µM
same,IC (TGI),"HOP-92; HOP-92, 5 log dose",3.09 µM
same,CC50,"HOP-92; HOP-92, 5 log dose, 48 h, read-out: LC50 (the source's name)",> 25 µM
same,activity at 10 µM,"HOP-92; HOP-92, single dose 10 μM, read-out: percent cell growth promotion",-28%
same,GI50,SR; 5 log dose,1.23 µM
same,IC (TGI),SR; 5 log dose,11.2 µM
same,CC50,SR; [2],> 25 µM
same,activity at 10 µM,SR; [1],-20.6%
same,GI50,"OVCAR-5; OVCAR-5, 5 log dose",3.88 µM
same,IC (TGI),"OVCAR-5; OVCAR-5, 5 log dose",15.4 µM
same,CC50,"OVCAR-5; OVCAR-5, 5 log dose, 48 h, read-out: LC50 (the source's name)",> 25 µM
same,activity at 10 µM,"OVCAR-5; OVCAR-5, single dose 10 μM, read-out: percent cell growth promotion",23.1%
same,GI50,"SW-620; SW-620, 5 log dose",2.86 µM
same,IC (TGI),"SW-620; SW-620, 5 log dose",7.79 µM
same,CC50,"SW-620; SW-620, 5 log dose, 48 h, read-out: LC50 (the source's name)",21.2 µM
same,activity at 10 µM,"SW-620; SW-620, single dose 10 μM, read-out: percent cell growth promotion",15.4%
same,GI50,NCI/ADR-RES; 5 log dose,2.62 µM
same,IC (TGI),NCI/ADR-RES; 5 log dose,16.6 µM
same,CC50,NCI/ADR-RES; [2],> 25 µM
same,activity at 10 µM,NCI/ADR-RES; [1],-1.13%
same,GI50,SK-MEL-5; SK-MEL-5,1.08 µM
same,IC (TGI),"SK-MEL-5; SK-MEL-5, read-out: TGI",4.56 µM
same,activity at 10 µM,"SK-MEL-5; SK-MEL-5, read-out: percent cell growth promotion",-96.1%
same,CC50,"SK-MEL-5; SK-MEL-5, 5 log dose, 48 h, read-out: LC50 (the source's name)",10.8 µM
same,activity at 10 µM,TK-10,-17.5%
same,GI50,M14; M14,0.91 µM
same,IC (TGI),"M14; M14, read-out: TGI",5.03 µM
same,activity at 10 µM,"M14; M14, read-out: percent cell growth promotion",-9.99%
same,CC50,"M14; M14, 5 log dose, 48 h, read-out: LC50 (the source's name)",15.2 µM
same,GI50,"HCT-116; HCT-116, 5 log dose",1.07 µM
same,IC (TGI),"HCT-116; HCT-116, 5 log dose",4.83 µM
same,LC50 (lethal concentration 50%),"HCT-116; HCT-116, 5 log dose, 48 h",13.1 µM
same,activity at 10 µM,"HCT-116; HCT-116, single dose 10 μM, read-out: percent cell growth promotion",1.21%
same,TGI,CCRF-CEM; 5 log dose,14.2 µM
same,GI50,"CCRF-CEM; Homo sapiens, 5 log dose",2.8 µM
same,CC50,"CCRF-CEM; Homo sapiens, 5 log dose, 48 h, read-out: LC50 (the source's name)",> 25 µM
same,activity at 10 µM,"CCRF-CEM; Homo sapiens, single dose 10 μM, read-out: percent cell growth promotion",1.06%
same,GI50,"NCI-H226; NCI-H226, 5 log dose",1.56 µM
same,IC (TGI),"NCI-H226; NCI-H226, 5 log dose",6.58 µM
same,CC50,"NCI-H226; NCI-H226, 5 log dose, 48 h, read-out: LC50 (the source's name)",21.7 µM
same,activity at 10 µM,"NCI-H226; NCI-H226, single dose 10 μM, read-out: percent cell growth promotion",1.78%
same,GI50,"U251; U251, 5 log dose",1.24 µM
same,IC (TGI),"U251; U251, 5 log dose",7.47 µM
same,CC50,"U251; U251, 5 log dose, 48 h, read-out: LC50 (the source's name)",19.1 µM
same,activity at 10 µM,"U251; U251, single dose 10 μM, read-out: percent cell growth promotion",-12.7%
same,GI50,ACHN; 5 log dose,2.35 µM
same,IC (TGI),ACHN; 5 log dose,> 25 µM
same,CC50,ACHN; [2],> 25 µM
same,activity at 10 µM,ACHN; [1],3.37%
same,GI50,"OVCAR-8; OVCAR-8, 5 log dose",3.49 µM
same,IC (TGI),"OVCAR-8; OVCAR-8, 5 log dose",15 µM
same,CC50,"OVCAR-8; OVCAR-8, 5 log dose, 48 h, read-out: LC50 (the source's name)",> 25 µM
same,activity at 10 µM,"OVCAR-8; OVCAR-8, single dose 10 μM, read-out: percent cell growth promotion",5.02%
same,GI50,"SK-OV-3; SK-OV-3, 5 log dose",2.38 µM
same,IC (TGI),"SK-OV-3; SK-OV-3, 5 log dose",9.96 µM
same,CC50,"SK-OV-3; SK-OV-3, 5 log dose, 48 h, read-out: LC50 (the source's name)",> 25 µM
same,activity at 10 µM,"SK-OV-3; SK-OV-3, single dose 10 μM, read-out: percent cell growth promotion",9.17%
same,GI50,"SNB-19; SNB-19, 5 log dose",3.2 µM
same,IC (TGI),"SNB-19; SNB-19, 5 log dose",12 µM
same,CC50,"SNB-19; SNB-19, 5 log dose, 48 h, read-out: LC50 (the source's name)",> 25 µM
same,activity at 10 µM,"SNB-19; SNB-19, single dose 10 μM, read-out: percent cell growth promotion",21.9%
same,GI50,SN12C; 5 log dose,2.12 µM
same,IC (TGI),SN12C; 5 log dose,8.07 µM
same,CC50,SN12C; [2],> 25 µM
same,activity at 10 µM,SN12C; [1],17%
same,GI50,"NCI-H460; NCI-H460, 5 log dose",2.7 µM
same,IC (TGI),"NCI-H460; NCI-H460, 5 log dose",7.12 µM
same,LC50 (concentration causing 50% cell kill),"NCI-H460; NCI-H460, 5 log dose, 48 h",18.8 µM
same,activity at 10 µM,"NCI-H460; NCI-H460, single dose 10 μM, read-out: percent cell growth promotion",3.1%
same,GI50,"NCI-H23; NCI-H23, 5 log dose",1.56 µM
same,IC (TGI),"NCI-H23; NCI-H23, 5 log dose",7.87 µM
same,CC50,"NCI-H23; NCI-H23, 5 log dose, 48 h, read-out: LC50 (the source's name)",> 25 µM
same,activity at 10 µM,"NCI-H23; NCI-H23, single dose 10 μM, read-out: percent cell growth promotion",4.18%

# Reference: PMC6691788, “Design and synthesis of phthalazine-based compounds as potent anticancer agents with potential antiangiogenic activity via VEGFR-2 inhibition” (Journal of Enzyme Inhibition and Medicinal Chemistry, 2019)
